Laboratory results as given in patent publication US9138466B2, “Factor H for transplantation” (Baxter International Inc., priority 2013, dated 2015).
“And” between values parts separate entries of the source, which are not always exact repeats. Equal values may be shown once. Marks after values point to notes of the source that are not given here.

Experiments:
Format in all cases: in vivo
[1] = test system: C3H kidney allografts in pre-sensitized B6 recipients; assay: Pre-sensitized mouse kidney allograft model, RAPA / CFH / FK506, graft survival (Example 2)
Description: Male C3H (H-2k) and C57BL/6 (B6, H-2b) mice (25-30 g) were used to determine the efficacy of Rapamycin (RAPA) in combination with Factor H (FH) during transplant rejection. C3H mice served as skin graft and kidney donors for pre-sensitization and kidney transplantation. Male C57BL/c (B6) mice were used as recipients. The B6 recipients were pre-sensitized by transplantation of the donor skin grafts, and were subsequently transplanted with kidney allografts between 15 and 20 days after the skin transplantation. […]
Mice were monitored daily for signs of rejection and were euthanized at the end point of the experiment, which was defined as when transplants developed functional deterioration due to severe rejection or on POD60 and POD100. Renal graft function was monitored by plasma creatinine (Cr) blood urea nitrogen (BUN) and hematocrit (Hct) levels by an I-Stat potable analyzer (Abaxis). Circulating donor specific antibodies (DSAs) were determined prior to kidney transplantation and at the endpoint of study by flow cytometry.

[2] = test system: collagen antibody-induced arthritis in Balb C mice; assay: Mouse CAIA, hind paw volume / footpad swelling (Example 4); design: Mean Disease Burden / Hind Limb Volume, Mean Diff. / Total Disease, Mean Diff.: unit not given here; details: for Total Footpad Thickness, Day of Study 8: day 8; for Total Footpad Thickness, Day of Study 11: day 11; for Total Footpad Thickness, Day of Study 12: day 12; for Total Footpad Thickness, Day of Study 13: day 13; for Total Footpad Thickness, Day of Study 15: day 15; for Total Footpad Thickness, Day of Study 19: day 19; for Total Footpad Thickness, Day of Study 22: day 22; for % Disease Suppression: footpad thickness AUC vs vehicle; for Total Disease Burden (AUC): footpad thickness days 8-22, in mL·day
[3] = test system: collagen antibody-induced arthritis in Balb C mice; assay: Mouse CAIA, clinical score (Example 4); design: key to Mean Maximum Clinical Score: scored 0 to 60, sum of 4 limbs
[4] = test system: collagen antibody-induced arthritis in Balb C mice; assay: Mouse CAIA, histopathology of hind limbs (ankle, H & E) (Example 4); details: for Composite Histopathaligy Score / Score From H & E, Bone Resorption / Score From H & E, Cartilage Damage / Score From H & E, Inflammation / Score From H & E, Pannus / Score From H & E, Periosteal Exostotic Changes: ankle; for Score From H & E, Bone Resorption / Score From H & E, Cartilage Damage / Score From H & E, Inflammation / Score From H & E, Pannus / Score From H & E, Periosteal Exostotic Changes: score 0 = normal to 5 = severe
[5] = Mouse CAIA, body weight and tolerability (Example 4)
Protocol: Balb C mice (n=10 per cohort) were used to determine the efficacy of Factor H (FH) during transplant rejection. The mice were treated with ArthritoMAb (anti-collagen) antibody cocktail (2 mg, i.v.) on day 1, followed 7 days later with an injection of LPS (50 μg, i.p.). On day 8, hind paw volumes were measured for each animal and distributed to various treatment groups.
Hind paw volumes were measured on day 8, 11, 12, 13, 15, 19 and 22 (endpoint). The age at start date was 7 to 9 weeks. Body weights were measured bi-weekly to the endpoint (Table 4). At the endpoint, tissue samples were processed for histology and submitted to a pathologist for independent analysis. Sampling 1 was performed at the endpoint. The hind limbs were preserved in 10% formalin. Sampling 2 was performed at the endpoint for group 4 animals. Blood was collected by terminal cardiac puncture. The blood was processed for anti-coagulant. The kidneys were additionally preserved in formalin and followed with 70% EtOH. Samples were scored for inflammation, pannus (granulation tissue), cartilage damage, bone resorption and exostosis (Table 5).

[6] = Dunnett's Multiple Comparison Test, G1 vehicle vs treatment
[7] = Dunnett's Multiple Comparison Test, vehicle vs treatment
[8] = Dunn's Multiple Comparison Test, G1 vehicle vs treatment
[9] = individual animal, listed as Group 3

## CO[C@H]1C[C@@H]2CC[C@@H](C)[C@@](O)(O2)C(=O)C(=O)N2CCCC[C@H]2C(=O)O[C@H]([C@H](C)C[C@@H]2CC[C@@H](O)[C@H](OC)C2)CC(=O)[C@H](C)/C=C(\C)[C@@H](O)[C@@H](OC)C(=O)[C@H](C)C[C@H](C)/C=C/C=C/C=C/1C [RAPA Alone, Rapamycin]
[1]; individual grafts, pre-sensitized kidney transplant model
  Survival: 8 days (2×) and 37 days and 10 days and 11 days and 12 days and 22 days and 14 days and 16 days and 20 days
[1]; per cohort, untreated controls 8 days
  MST (mean survival time): 14 days

## Etanercept
[2]; AUC of combined footpad volume over baseline, days 8 to 22, group mean, vehicle 1.93
  Mean Disease Burden: 0.74**
[2]; [6]
  Total Disease, 95% CI of diff: 0.441 to 1.94
  Total Disease, Mean Diff.: 1.19
  Total Disease, Significant? P < 0.05?: Yes
  Total Disease, Summary: ** (**= P < 0.01)
  Total Disease, q: 3.9
[2]; [7]
  Hind Limb Volume, 95% CI of diff: 0.02587 to 0.1370
  Hind Limb Volume, Mean Diff.: 0.08143
  Hind Limb Volume, Significant? P < 0.05?: Yes
  Hind Limb Volume, Summary: ** (**= P < 0.01)
  Hind Limb Volume, q: 3.674
[2]; group mean, n 10
  Total Footpad Thickness, Day of Study 8: 0.35 mL
  Total Footpad Thickness, Day of Study 11: 0.44 mL
  Total Footpad Thickness, Day of Study 12: 0.44 mL
  Total Footpad Thickness, Day of Study 13: 0.42 mL
  Total Footpad Thickness, Day of Study 15: 0.38 mL
  Total Footpad Thickness, Day of Study 19: 0.42 mL
  Total Footpad Thickness, Day of Study 22: 0.38 mL
  % Disease Suppression: 61.66%
  Total Disease Burden (AUC): 0.74
[2]; individual animals (A# 1-10)
  Total Footpad Thickness, Day of Study 8: 0.41 mL and 0.4 mL and 0.38 mL and 0.37 mL and 0.35 mL and 0.34 mL and 0.32 mL and 0.31 mL and 0.3 mL (2×)
  Total Footpad Thickness, Day of Study 11: 0.49 mL and 0.44 mL (2×) and 0.37 mL and 0.38 mL and 0.39 mL and 0.4 mL (2×) and 0.45 mL and 0.41 mL
  Total Footpad Thickness, Day of Study 12: 0.58 mL and 0.44 mL and 0.35 mL and 0.42 mL and 0.48 mL and 0.49 mL and 0.45 mL and 0.39 mL (2×) and 0.4 mL
  Total Footpad Thickness, Day of Study 13: 0.58 mL and 0.41 mL (2×) and 0.36 mL and 0.33 mL and 0.49 mL and 0.39 mL and 0.35 mL and 0.43 mL and 0.4 mL
  Total Footpad Thickness, Day of Study 15: 0.45 mL and 0.48 mL and 0.34 mL and 0.37 mL and 0.43 mL and 0.41 mL and 0.33 mL (2×) and 0.32 mL and 0.3 mL
  Total Footpad Thickness, Day of Study 19: 0.61 mL and 0.43 mL and 0.4 mL and 0.47 mL (2×) and 0.32 mL and 0.42 mL and 0.35 mL and 0.33 mL and 0.38 mL
  Total Footpad Thickness, Day of Study 22: 0.55 mL and 0.41 mL (2×) and 0.34 mL (2×) and 0.39 mL and 0.36 mL (3×) and 0.32 mL
  % Disease Suppression: 16.3% and 74.3% and 109.8% and 83.9% and 52.3% and 49.7% and 69.4% and 70.2% and 29.0% and 63.7%
  Total Disease Burden (AUC): 1.62 and 0.56 and −0.19 and 0.35 and 0.92 and 0.97 and 0.59 and 0.58 and 1.37 and 0.70
[2]; mean combined foot pad volume, day 8 vs median day of maximal swelling, vehicle 0.21
  Maximum Δ Mean Volume: 0.13** ml
[2]; percent decrease in total disease burden relative to vehicle
  % Disease Suppression (vs Vehicle): 61.7%
[3]; [8]
  Clinical Score, Difference in rank sum: 3.55
  Clinical Score, Significant? P < 0.05?: No
[3]; day 8, group mean n=10
  Clinical score, Mean: 5.50
[3]; day 8, individual animal
  Clinical score: 0 (5×) and 15 and 10 (4×)
[3]; day 11, group mean n=10
  Clinical score, Mean: 19.60
[3]; day 11, individual animal
  Clinical score: 12 (2×) and 34 and 28 and 4 and 15 and 43 and 11 and 10 and 27
[3]; day 12, group mean n=10
  Clinical score, Mean: 37.10
[3]; day 12, individual animal
  Clinical score: 32 and 50 (2×) and 45 and 27 and 35 and 26 and 20 and 34 and 52
[3]; day 13, group mean n=10
  Clinical score, Mean: 35.50
[3]; day 13, individual animal
  Clinical score: 32 and 50 and 45 (2×) and 21 and 35 and 30 and 15 and 34 and 48
[3]; day 15, group mean n=10
  Clinical score, Mean: 31.50
[3]; day 15, individual animal
  Clinical score: 32 and 49 and 21 and 48 and 25 and 45 and 15 and 10 and 24 and 46
[3]; day 19, group mean n=10
  Clinical score, Mean: 28.40
[3]; day 19, individual animal
  Clinical score: 32 and 48 and 34 and 25 and 5 and 45 and 20 and 10 and 26 and 37
[3]; day 22, group mean n=10
  Clinical score, Mean: 25.70
[3]; day 22, individual animal
  Clinical score: 32 and 41 and 34 and 18 (3×) and 40 and 10 and 23 and 26
[3]; group line 'Mean', day of study
  Day (of Max Clin Score), Mean: 12.00
[3]; group mean n=10
  Max Clin Score, Mean: 38.60
[3]; individual animal
  Max Clin Score: 32 and 50 (2×) and 45 and 48 and 35 and 30 and 20 and 34 and 52
[3]; individual animal, day of study
  Day (of Max Clin Score): 12 (8×) and 22 and 16
[3]; scored from 0 to 60, sum of 4 limbs, vehicle 45.4
  Mean Maximum Clinical Score: 39.6^ns
[4]; [8]
  Cartilage, Difference in rank sum: −1.5
  Cartilage, Significant? P < 0.05?: No
  Composite, Difference in rank sum: 2.1
  Composite, Significant? P < 0.05?: No
  Exostosis, Difference in rank sum: 5.8
  Exostosis, Significant? P < 0.05?: No
  Inflammation, Difference in rank sum: 3.6
  Inflammation, Significant? P < 0.05?: No
  Pannus, Difference in rank sum: 0.3
  Pannus, Significant? P < 0.05?: No
[4]; group mean
  Composite Histopathaligy Score: 6.0 ± 2.1
  Score From H & E, Bone Resorption: 1.0 ± 0.4
  Score From H & E, Cartilage Damage: 0.7 ± 0.3
  Score From H & E, Inflammation: 1.5 ± 0.5
  Score From H & E, Pannus: 1.4 ± 0.5
  Score From H & E, Periosteal Exostotic Changes: 1.4 ± 0.8
[4]; [9]
  Score From H & E, Bone Resorption: 1 and 0 (6×) and 3 (3×)
  Score From H & E, Cartilage Damage: 1 (3×) and 0 (5×) and 2 (2×)
  Score From H & E, Inflammation: 1 (4×) and 3 (3×) and 0 (2×) and 2
  Score From H & E, Pannus: 1 and 0 (5×) and 4 (2×) and 2 (2×)
  Score From H & E, Periosteal Exostotic Changes: 4 and 0 (6×) and 1 and 3 (2×)
  Composite Histopathaligy Score: 11 (2×) and 0 (5×) and 16 and 15 and 1
[4]; histopathology summary, graded 1-5, vehicle 0.6 ± 0.3
  Bone Resorption: 1.0 ± 0.4^ns
[4]; histopathology summary, graded 1-5, vehicle 1.0 ± 0.3
  Pannus: 1.4 ± 0.5^ns
[4]; histopathology summary, graded 1-5, vehicle 2.0 ± 0.5
  Inflammation: 1.5 ± 0.5^ns
[4]; histopathology summary, graded 1 to 5, vehicle 2.6 ± 0.5
  Exostosis: 1.4 ± 0.6^ns
[4]; histopathology summary, vehicle 0.5 ± 0.2
  Cartilage Damage: 0.7 ± 0.3^ns
[4]; histopathology summary, vehicle 6.7 ± 1.7
  Composite Score: 6.0 ± 2.1^ns
[5]; day 1, group mean n=10, before dosing start (day 8)
  Body Weight, Wt (g), Mean: 17.3 g
[5]; day 1, individual animal, before dosing start (day 8)
  Body Weight, Wt: 16.7 g and 17.3 g and 16.5 g (2×) and 18 g (2×) and 17.7 g and 17.5 g and 16.8 g and 17.6 g
[5]; day 5, group mean n=10, before dosing start (day 8)
  Body Weight, Wt (g), Mean: 17.7 g
[5]; day 5, individual animal, before dosing start (day 8)
  Body Weight, Wt: 18.5 g (2×) and 17.4 g (2×) and 18.2 g and 16.6 g and 17.3 g and 17 g and 18.1 g and 18.3 g
[5]; day 8, group mean n=10
  Body Weight, Wt (g), Mean: 16.3 g
[5]; day 8, individual animal
  Body Weight, Wt: 16.5 g and 16.4 g (2×) and 16.1 g (2×) and 15.7 g (2×) and 16.2 g and 16.6 g and 17.1 g
[5]; day 12, group mean n=10
  Body Weight, Wt (g), Mean: 17 g
[5]; day 12, individual animal
  Body Weight, Wt: 16.6 g and 16.7 g (2×) and 17.8 g (2×) and 17.9 g and 15.5 g and 17.1 g and 17.7 g
[5]; day 15, group mean n=10
  Body Weight, Wt (g), Mean: 17.4 g
[5]; day 15, individual animal
  Body Weight, Wt: 17.1 g and 17.8 g and 17 g and 17.7 g and 16.6 g and 18 g (2×) and 17.9 g and 16.2 g and 17.6 g
[5]; day 19, group mean n=10
  Body Weight, Wt (g), Mean: 17.9 g
[5]; day 19, individual animal
  Body Weight, Wt: 18.3 g (2×) and 17.7 g and 18.4 g and 14.6 g and 18.8 g and 18.6 g (2×) and 16.5 g and 19.1 g
[5]; day 22, group mean n=10
  Body Weight, Wt (g), Mean: 18.1 g
[5]; day 22, individual animal
  Body Weight, Wt: 18.8 g and 18.3 g and 17.8 g and 18.7 g and 15.8 g and 18 g and 18.2 g and 17.3 g and 18.6 g and 19.6 g
[5]; lowest group mean body weight as % change from day 1, vehicle −8.0%
  Mean Body Weigh at Nadir: −5.7%
